Results published in EP4389156A1, “RA[…] LIGAND COMPOUNDS AND PRECURSORS THEREOF” (Technische Universität München, priority 2022, dated 2024).
“And” between values parts separate entries of the source, which are not always exact repeats. Equal entries are not always repeated.

Legend:
[1] = tested on: LNCaP tumor-bearing CB17-SCID mice; assay: Biodistribution study in LNCaP tumor-bearing mice; type: in vivo; settings: 6 h p.i.; for uptake in % iD/g adrenals / uptake in % iD/g blood / uptake in % iD/g bone / uptake in % iD/g heart / uptake in % iD/g intestine / uptake in % iD/g kidney / uptake in % iD/g liver / uptake in % iD/g lung / uptake in % iD/g muscle / uptake in % iD/g pancreas / uptake in % iD/g parotid gland / uptake in % iD/g spleen / uptake in % iD/g stomach / uptake in % iD/g submandibular gland / uptake in % iD/g tumor: male LNCaP tumor-bearing CB17-SCID mice, mean; for uptake in % iD/g adrenals / uptake in % iD/g blood / uptake in % iD/g bone / uptake in % iD/g heart / uptake in % iD/g intestine / uptake in % iD/g kidney / uptake in % iD/g liver / uptake in % iD/g lung / uptake in % iD/g muscle / uptake in % iD/g pancreas / uptake in % iD/g parotid gland / uptake in % iD/g spleen / uptake in % iD/g stomach / uptake in % iD/g submandibular gland / uptake in % iD/g tumor / tumor-to-background ratio adrenals / tumor-to-background ratio blood / tumor-to-background ratio bone / tumor-to-background ratio heart / tumor-to-background ratio intestine / tumor-to-background ratio kidney / tumor-to-background ratio liver / tumor-to-background ratio lung / tumor-to-background ratio muscle / tumor-to-background ratio pancreas / tumor-to-background ratio parotid gland / tumor-to-background ratio spleen / tumor-to-background ratio stomach / tumor-to-background ratio submandibular gland: n = 4-5; for tumor-to-background ratio adrenals / tumor-to-background ratio blood / tumor-to-background ratio bone / tumor-to-background ratio heart / tumor-to-background ratio intestine / tumor-to-background ratio kidney / tumor-to-background ratio liver / tumor-to-background ratio lung / tumor-to-background ratio muscle / tumor-to-background ratio pancreas / tumor-to-background ratio parotid gland / tumor-to-background ratio spleen / tumor-to-background ratio stomach / tumor-to-background ratio submandibular gland: mean of ratios of individual animals; for Blood activity levels increased, as compared to [^99mTc]Tc-N4-PSMA-12: relative to [^99mTc]Tc-N4-PSMA-12
Method: All animal experiments were conducted in accordance with general animal welfare regulations in Germany (German animal protection act, in the edition of the announcement, dated May 18th, 2006, as amended by Article 280 of June 19th 2020, approval no. ROB-55.2-1-2532.Vet_02-18-109 by the General Administration of Upper Bavaria) and the institutional guidelines for the care and use of animals. Male CB17-SCID mice were purchased from Charles River (Sulzfeld, Germany) and arrived at the in-house animal facility to acclimate at least 1 week before the start of the experiment. Tumor xenografts were established by subcutaneous inoculation of LNCaP cells (approx. 2 × 10^7 cells in 200 µL of a 1:1 mixture of Cultrex BME (R&D Systems, Minneapolis, United States) and DMEM/Ham's F-12) onto the right shoulder of 6-8 weeks old male CB17-SCID mice. The animals were used for experiments when tumors had grown to a size of 5-10 mm in diameter. Criteria for the exclusion of animals from the experiment were weight loss higher than 20%, tumor size above 1.5 cm^3, ulceration of the tumor, respiratory distress or change of behavior. […] Neither randomisation nor blinding was applied in the allocation of the experiments. Quarterly health monitoring was performed according to the FELASA recommendations.
Biodistribution Studies. The ^99mTc-labeled radioligands (2.7 ± 0.7 MBq, 82 ± 20 pmol) were injected into a lateral tail vein of LNCaP-tumor bearing mice (n = 4-5) under isoflurane anesthesia. Animals were sacrificed at 6 h post injection (p.i.) by carbon dioxide inhalation and blood withdrawal via cardiac puncture. Blood and tissues of interest were collected, weighed and the activity measured in a γ-counter. Radioligand uptake is given in percent of the injected dose per gram of tissue (% ID/g) and results are presented as mean ± SD.
In line with the above, the biodistribution study of [^99mTc]Tc-N4-PSMA-21 was carried out with n = 5 animals ("data set I"). […] Kidney uptake of mouse #3 (36.17 %ID/g) exceeded the value obtained from the other four animals (4.58 ± 1.44 %ID/g, mean ± SD) 7.9-fold or by more than 20 standard deviations. In addition, tumor uptake of mouse #3 (21.92 %ID/g) exceeded the value obtained from the other four animals (11.02 ± 2.22 %ID/g, mean ± SD) 2.0-fold or by more than 4 standard deviations Due to the uncertainty whether these huge deviations arise from an experimental error or might be related to strongly deviating metabolic processes e.g. abnormal kidney function in mouse #3, the study primarily presents and discusses the data set based on the other four animals (n = 4, "data set II"). A thorough evaluation and comparison was, however, also carried out including mouse #3.

[2] = Lipophilicity (logD7.4), shake-flask method; type: physicochemical; settings: n-octanol/PBS (pH 7.4), n = 8, mean ± SD
Method: The lipophilicity of ^99mTc-labeled PSMA ligands, expressed as distribution coefficient (logD7.4), was determined using the shake-flask method. A solution of approximately 1 MBq of radioligand in 1 mL of a 1:1 mixture of PBS (pH = 7.4) and n-octanol (n = 8) was vortexed vigorously for 3 min. After centrifugation at 9000 rpm for 5 min aliquots of both phases (200 µL n-octanol, 50 µL PBS) were collected and the activity was quantified in a γ-counter. logD7.4 values were calculated as decadic logarithm of the activity concentration ratio between the n-octanol phase and the aqueous phase. Data are given as mean ± standard deviation (SD). Binding to human plasma was determined by incubation of radioligands in human plasma (2 nM concentration, 37 °C for 30 min) and subsequent ultrafiltration (250 µL aliquots, 3200 rpm, 40 min) in Centrifree® ultrafiltration devices (Merck Millipore, Cork, Ireland). The fraction bound to human plasma proteins was calculated as the ratio of unfiltered activity and the total activity in the ultrafiltration device. Measurements were performed in three independent experiments, each with two replicates (n = 6, data are given as mean ± SD). All values were corrected for non-specific binding (control experiments in PBS).

LNCaP cells = assay: PSMA-mediated internalization into LNCaP cells; type: cell-based; settings: 1 h, 37°C, n = 3, as percentage of reference [125I]IBA-KuE, mean ± SD
Method: (§1) Competitive binding studies were carried out in analogy to a previously reported procedure. As a modification the non-radiolabeled standard competitor (((S)-1-carboxy-5-(4-(iodo)benzamido)pentyl)carbamoyl)-L-glutamic acid (IBA-KuE) was applied in increasing concentrations (10^-5 - 10^-11 M/well, n = 3 each) whereas the novel PSMA-binding compounds of interest were applied as ^99mTc-labeled radioligands (0.2 nM/well). In this inversed experimental approach, higher values correspond to higher affinities and are referred to as inverse IC50. Poly-L-lysine coated 24-well plates were used (n = 3). Data are given as mean ± SD. To determine the cellular uptake of the ^99mTc-labeled PSMA ligands into LNCaP cells by means of PSMA-mediated internalization at 1 h, a previously reported protocol was applied with assay concentrations of 1.0 nM and 0.2 nM for ^99mTc-labeled PSMA ligands and the reference compound [^125I]IBA-KuE, respectively. Data are corrected for non-specific binding and normalized to the specific internalization of the reference. Results are given as mean ± SD.

PSMA = biological target: T1, PSMA (Homo sapiens, UniProt Q04609); assay: Competitive binding study, inverse IC50 (99mTc-radioligand versus increasing IBA-KuE); settings: inverse IC50: IBA-KuE competes against 99mTc-radioligand (0.2 nM/well); higher values = higher affinity; 1 h, 4°C, n = 3, mean ± SD; read-out: IC50, inv.
T1 construct: endogenous in cells; printed for the internalization assay of the same paragraph
T1 sequence (Q04609 whole entry): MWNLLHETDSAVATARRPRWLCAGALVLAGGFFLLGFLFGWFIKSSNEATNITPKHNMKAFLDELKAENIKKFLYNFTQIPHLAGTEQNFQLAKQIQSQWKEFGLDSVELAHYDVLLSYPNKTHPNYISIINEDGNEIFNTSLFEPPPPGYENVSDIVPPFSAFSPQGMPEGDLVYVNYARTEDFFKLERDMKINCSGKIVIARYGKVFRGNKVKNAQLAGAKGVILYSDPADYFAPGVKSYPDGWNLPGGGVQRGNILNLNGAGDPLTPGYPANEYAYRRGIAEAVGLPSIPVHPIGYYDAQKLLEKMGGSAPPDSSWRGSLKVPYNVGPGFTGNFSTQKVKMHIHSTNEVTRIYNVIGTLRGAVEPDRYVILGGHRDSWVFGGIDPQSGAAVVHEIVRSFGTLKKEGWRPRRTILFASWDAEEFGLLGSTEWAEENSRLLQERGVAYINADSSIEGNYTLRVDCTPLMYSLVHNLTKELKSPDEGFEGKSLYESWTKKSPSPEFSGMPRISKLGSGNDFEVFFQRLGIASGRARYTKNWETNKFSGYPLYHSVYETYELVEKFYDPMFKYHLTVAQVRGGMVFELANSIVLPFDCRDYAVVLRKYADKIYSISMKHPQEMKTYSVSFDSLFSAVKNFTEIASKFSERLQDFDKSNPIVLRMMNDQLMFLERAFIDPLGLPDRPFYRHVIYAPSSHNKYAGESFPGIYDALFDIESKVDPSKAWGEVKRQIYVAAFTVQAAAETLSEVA
Method: as §1

[3] = biological target: T2, human serum albumin (HSA) (Homo sapiens, UniProt P02768); assay: HSA binding by high performance affinity chromatography (HPAC); type: in vitro ADME; settings: uncomplexed compounds, n = 1
T2 construct: purchased Daicel, Tokyo, Japan H13H-2433
T2 sequence (P02768 25-609): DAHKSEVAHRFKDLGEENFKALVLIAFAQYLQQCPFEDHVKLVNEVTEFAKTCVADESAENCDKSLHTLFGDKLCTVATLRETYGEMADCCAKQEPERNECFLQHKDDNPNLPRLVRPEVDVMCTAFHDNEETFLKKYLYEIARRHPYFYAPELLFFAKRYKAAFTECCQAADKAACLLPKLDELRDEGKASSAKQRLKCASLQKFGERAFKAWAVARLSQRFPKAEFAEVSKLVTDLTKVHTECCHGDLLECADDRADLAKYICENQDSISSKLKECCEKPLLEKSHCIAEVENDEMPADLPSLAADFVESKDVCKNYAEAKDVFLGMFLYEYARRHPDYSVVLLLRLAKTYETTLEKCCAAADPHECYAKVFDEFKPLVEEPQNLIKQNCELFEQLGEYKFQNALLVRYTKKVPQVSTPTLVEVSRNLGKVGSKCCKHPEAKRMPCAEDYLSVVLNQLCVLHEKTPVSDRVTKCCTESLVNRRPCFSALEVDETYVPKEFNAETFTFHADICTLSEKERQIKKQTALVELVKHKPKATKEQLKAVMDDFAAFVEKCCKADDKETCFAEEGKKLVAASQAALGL
Method: HSA binding of the uncomplexed PSMA ligands was determined according to a previously published procedure via HPLC (Valko, K.; Nunhuck, S.; Bevan, C.; Abraham, M. H.; Reynolds, D. P., Fast gradient HPLC method to determine compounds binding to human serum albumin. Relationships with octanol/water and immobilized artificial membrane lipophilicity. J Pharm Sci. 2003, 92, 2236-2248). A Chiralpak HSA column (50 × 3 mm, 5 µm, H13H-2433, Daicel, Tokyo, Japan) was used at a constant flow rate of 0.5 mL/min at rt. Mobile phase A was a freshly prepared 50 mM aqueous solution of NH4OAc (pH 6.9) and mobile phase B was isopropanol (HPLC grade, VWR). The applied gradient for all experiments was 100% A (0 to 3 min), followed by 80% A (3 to 40 min). Prior to the experiment, the column was calibrated using nine reference substances with a HSA binding, known from literature, in the range of 13 to 99% (Valko, K.; Nunhuck, S.; Bevan, C.; Abraham, M. H.; Reynolds, D. P., J Pharm Sci. 2003, 92, 2236-2248; Yamazaki, K.; Kanaoka, M., Computational prediction of the plasma protein-binding percent of diverse pharmaceutical compounds. J Pharm Sci. 2004, 93, 1480-1494). All substances, including the examined PSMA ligands, were dissolved in a 1:1 mixture (v/v) of isopropanol and a 50 mM aqueous solution of NH4OAc (pH 6.9) with a final concentration of 0.5 mg/mL. Non-linear regression was established with the OriginPro 2016G software (Northampton, United States).

[4] = single outlier animal (mouse #3), excluded from data set II

Row | Structure (SMILES) | uptake in % iD/g adrenals [1] [% ID/g] | uptake in % iD/g blood [1] [% ID/g] | uptake in % iD/g bone [1] [% ID/g] | uptake in % iD/g heart [1] [% ID/g] | uptake in % iD/g intestine [1] [% ID/g] | uptake in % iD/g kidney [1] | uptake in % iD/g liver [1] [% ID/g] | uptake in % iD/g lung [1] [% ID/g] | uptake in % iD/g muscle [1] [% ID/g] | uptake in % iD/g pancreas [1] [% ID/g] | uptake in % iD/g parotid gland [1] [% ID/g] | uptake in % iD/g spleen [1] [% ID/g] | uptake in % iD/g stomach [1] [% ID/g] | uptake in % iD/g submandibular gland [1] [% ID/g] | uptake in % iD/g tumor [1] | tumor-to-background ratio adrenals [1] | tumor-to-background ratio blood [1] | tumor-to-background ratio bone [1] | tumor-to-background ratio heart [1] | tumor-to-background ratio intestine [1] | other results
1 | CC(C)(C)[Si](O)(c1ccc(C(=O)NC[C@@H](NC(=O)[C@@H](Cc2ccc(N)cc2)NC(=O)C(CNCCN)CNCCN)C(=O)N[C@H](CCCCNC(=O)CCC(=O)NCCC[C@@H](NC(=O)CC[C@H](NC(=O)N[C@@H](CCC(=O)O)C(=O)O)C(=O)O)C(=O)O)C(=O)O)cc1)C(C)(C)C.[O]=[99Tc+]=[O] [[^99mTc]Tc-N4-PSMA-21] | 0.5759 | 0.1074 | 0.0828 | 0.0568 | 1.1034 | 4.58 ± 1.44 % ID/g and 4.6 ± 1.4 % ID/g and 4.5811 % ID/g | 0.5752 | 0.1250 | 0.0153 | 0.0335 | 0.1105 | 1.3064 | 0.1458 | 0.3009 | 11.02 ± 2.22 % ID/g and 11.0155 % ID/g | 19.85 | 125.55 | 207.38 | 201.50 | 52.29 | tumor-to-background ratio kidney [1]: 2.57; tumor-to-background ratio liver [1]: 23.75; tumor-to-background ratio lung [1]: 99.35; tumor-to-background ratio muscle [1]: 736.44; tumor-to-background ratio pancreas [1]: 350.74; tumor-to-background ratio parotid gland [1]: 101.59; tumor-to-background ratio spleen [1]: 10.32; tumor-to-background ratio stomach [1]: 114.49; tumor-to-background ratio submandibular gland [1]: 50.80; Blood activity levels increased, as compared to [^99mTc]Tc-N4-PSMA-12 [1]: 5.4 fold; Kidney uptake of mouse #3 [1, 4]: 36.17 %ID/g; tumor uptake of mouse #3 [1, 4]: 21.92 %ID/g; logD7.4 [2]: -3.13 ± 0.05; internalization (% IBA-KuE) (LNCaP cells): 180 ± 4%; inverse IC50 (PSMA): 11.1 ± 1.42 nM; HSA-binding (HPAC) (%) [3]: 57.3%
2 | CC(C)(C)[Si](O)(c1ccc(C(=O)NC[C@@H](NC(=O)[C@@H](Cc2ccccc2)NC(=O)C(CNCCN)CNCCN)C(=O)N[C@H](CCCCNC(=O)CCC(=O)NCCC[C@@H](NC(=O)CC[C@H](NC(=O)N[C@@H](CCC(=O)O)C(=O)O)C(=O)O)C(=O)O)C(=O)O)cc1)C(C)(C)C.[O]=[99Tc+]=[O] [[^99mTc]Tc-N4-PSMA-13] | 0.5170 | 0.0320 | 0.0862 | 0.0456 | 0.2661 | 6.6 ± 4.8 % ID/g and 6.5974 % ID/g | 0.2618 | 0.1108 | 0.0127 | 0.0270 | 0.1056 | 0.6314 | 0.1348 | 0.3069 | 12.5347 % ID/g | 24.50 | 409.29 | 142.94 | 276.38 | 64.62 | tumor-to-background ratio kidney [1]: 2.45; tumor-to-background ratio liver [1]: 50.17; tumor-to-background ratio lung [1]: 113.30; tumor-to-background ratio muscle [1]: 1013.12; tumor-to-background ratio pancreas [1]: 496.73; tumor-to-background ratio parotid gland [1]: 119.35; tumor-to-background ratio spleen [1]: 20.57; tumor-to-background ratio stomach [1]: 101.82; tumor-to-background ratio submandibular gland [1]: 41.60; Blood activity levels increased, as compared to [^99mTc]Tc-N4-PSMA-12 [1]: 1.6 fold; logD7.4 [2]: -2.78 ± 0.05; internalization (% IBA-KuE) (LNCaP cells): 164 ± 15%; inverse IC50 (PSMA): 9.98 ± 0.99 nM; HSA-binding (HPAC) (%) [3]: 89.9%
